Measurements from patent US12281079B2, “Quinoline derivatives, processes for their preparation and uses thereof for the treatment of cancer” (Lead Discovery Center GmbH, priority 2019, dated 2025).

Target: mitochondrial RNA polymerase (POLRMT) (Mus musculus, UniProt Q8BKF1)
Experiment: Homogeneous TR-FRET assay for mitochondrial transcription activity
Assay type: biochemical
Conditions: homogeneous TR-FRET assay according to Example 4
From the text: The TR-FRET assay was basically conducted as described in WO2016/193231A1, especially as described in example 1 (hereby incorporated by reference). With respect to the back ground of the mitochondrial transcription it is referred to Falkenberg et al. (2002) and Posse et al. (Posse et al., 2015). The method monitors the activity of mitochondrial RNA-polymerase via detection of the formation of its product, a 407 bp long RNA sequence. Detection of the product is facilitated by hybridization of two DNA-oligonucleotide probes to specific and adjacent sequences within the RNA product sequence. Upon annealing of the probes, two fluorophores that are coupled directly to an acceptor nucleotide probe (ATT0647, 5′) or introduced via a coupled streptavidin interacting with a biotinylated donor nucleotide probe on the other side (Europium cryptate, 3′) are brought into sufficient proximity to serve as a fluorescence-donor-acceptor pair as generally described in Walters and Namchuk (2003). Thus, a FRET signal at 665 nm is generated upon excitation at 340 nm.
Briefly, the protocol described here was applied for screening and activity determination in a low-volume 384-well microtiter plate with non-binding surface. For high-throughput application in the 1536-well microtiter plate format, volumes of the reagent mixes were adjusted, maintaining the volumetric ratio. Proteins POLRMT (NM_172551.3), TFAM (NM_009360.4) and TFB2M (NM_008249.4) were diluted from their stocks to working concentrations of 150 nM, 1.8 μM and 330 nM respectively, in a dilution buffer containing 100 mM Tris-HCl pH 8.0, 200 mM NaCl, 10% (v/v) glycerole, 2 mM glutathione (GSH), 0.5 mM EDTA and 0.1 mg/mL BSA. Protein dilutions and template DNA, comprising a pUC18 plasmid encoding the mitochondrial light strand promoter, restriction linearized proximal to the promoter 3′-end (pUC-LSP), were mixed at the twofold final assay-concentration in a reaction buffer, containing 10 mM Tris-HCl pH 7.5, 10 mM MgCl2, 40 mM NaCl, 2 mM GSH, 0.01% (w/v) Tween-20 and 0.1 mg/mL BSA.
5 μL of this mix were dispensed, depending on the chosen microtiter plate format, using multi-channel pipettes or a Multidrop® dispenser (Thermo Fisher Scientific, Waltham Mass.) into the wells of a microtiter plate and incubated at room temperature (rt) for 10 min. Chemical compounds under scrutiny in the assay were applied using contact-free acoustic droplet-dispensing (Echo520® Labcyte Inc., Sunnyvale Calif.) from 10 mM compound stocks in 100% DMSO, to a final concentration of 10 μM or in serial dilution series of the required concentration range. Equal amounts of DMSO without any compound were added to positive control samples, followed by an incubation step at rt for 10 min.
The enzymatic reaction was started by the addition of 5 μL of a mix of dNTPs in reaction buffer to a final concentration of 500 μM each. No nucleotide mix was added to negative control samples. The content of the wells was mixed using a VarioTeleshaker™ (Thermo Fisher Scientific, Waltham Mass.) at 1500 rpm for 45 sec after which the microtiter plate was centrifuged at 500×g for 1 min. The samples were incubated for 2 h at rt with humidity control to avoid evaporation. The detection reagents were prepared in a buffer that was composed, such that the enzymatic reaction was terminated due to chelating of Mg-ions and increased ionic strength, containing 50 mM Tris-HCl pH 7.5, 700 mM NaCl, 20 mM EDTA, and 0.01% (w/v) Tween-20. Importantly Eu-cryptate-coupled streptavidin had to be preincubated with a 100-fold molar excess of a random sequence oligonucleotide for 10 min at rt in the dark to block unspecific binding of single stranded RNA to the protein. Subsequently, the blocked streptavidin(-Eu) was mixed with the DNA-probes on ice and kept away from light until use. […]

mitochondrial RNA polymerase (POLRMT), sequence (Q8BKF1 42-1207): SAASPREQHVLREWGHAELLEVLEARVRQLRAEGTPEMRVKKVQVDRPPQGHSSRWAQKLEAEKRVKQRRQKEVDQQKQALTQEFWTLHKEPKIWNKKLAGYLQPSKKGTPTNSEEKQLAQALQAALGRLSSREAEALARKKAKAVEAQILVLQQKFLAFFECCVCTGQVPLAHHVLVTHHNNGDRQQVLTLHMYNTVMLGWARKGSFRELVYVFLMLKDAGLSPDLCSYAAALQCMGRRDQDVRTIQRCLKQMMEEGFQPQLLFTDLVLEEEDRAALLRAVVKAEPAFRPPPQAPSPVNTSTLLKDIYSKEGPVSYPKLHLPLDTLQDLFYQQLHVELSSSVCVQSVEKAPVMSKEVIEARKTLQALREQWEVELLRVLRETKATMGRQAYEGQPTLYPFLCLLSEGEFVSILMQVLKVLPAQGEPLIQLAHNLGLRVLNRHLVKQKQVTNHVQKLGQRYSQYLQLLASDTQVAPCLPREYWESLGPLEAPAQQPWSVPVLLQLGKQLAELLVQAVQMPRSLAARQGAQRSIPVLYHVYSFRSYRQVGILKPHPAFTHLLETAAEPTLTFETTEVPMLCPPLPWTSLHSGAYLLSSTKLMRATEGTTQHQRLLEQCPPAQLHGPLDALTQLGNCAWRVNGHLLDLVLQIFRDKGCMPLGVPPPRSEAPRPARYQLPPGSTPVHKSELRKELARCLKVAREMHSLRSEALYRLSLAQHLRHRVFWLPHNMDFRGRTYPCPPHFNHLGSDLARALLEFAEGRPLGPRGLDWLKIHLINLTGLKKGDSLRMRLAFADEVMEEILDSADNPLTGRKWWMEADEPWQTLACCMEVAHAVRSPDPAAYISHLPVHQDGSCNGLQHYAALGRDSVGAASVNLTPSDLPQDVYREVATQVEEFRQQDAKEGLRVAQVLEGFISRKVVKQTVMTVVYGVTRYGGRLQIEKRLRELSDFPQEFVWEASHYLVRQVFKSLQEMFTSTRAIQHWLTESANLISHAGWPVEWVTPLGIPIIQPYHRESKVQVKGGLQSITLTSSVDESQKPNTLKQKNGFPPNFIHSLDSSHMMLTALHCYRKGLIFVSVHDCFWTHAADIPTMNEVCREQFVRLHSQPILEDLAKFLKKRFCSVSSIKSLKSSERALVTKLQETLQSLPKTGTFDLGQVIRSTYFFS

SMILES | IC50
COC(=O)C1CC(NC(=O)[C@@H](C)Oc2ccc3c(-c4ccccc4Cl)cc(Cl)nc3c2)C1 (stereo partly drawn) [Compound 97, methyl 3-[[(2R)-2-[[2-chloro-4-(2-chlorophenyl)-7-quinolyl]oxy]propanoyl]amino]cyclobutanecarboxylate] | 1000 to 10000 nM
C[C@@H](Oc1ccc2c(-c3ccccc3Cl)cc(Cl)nc2c1)C(=O)N1CCC[C@H](C(=O)N(C)C)C1 [Compound 100, (3S)-1-[(2R)-2-[[2-chloro-4-(2-chlorophenyl)-7-quinolyl]oxy]propanoyl]-N,N-dimethyl-piperidine-3-carboxamide] | 1000 to 10000 nM
C[C@H](Oc1ccc2c(-c3ccccc3Cl)ccnc2c1)C(=O)N1CCC[C@@H](C(=O)O)C1 [Compound 102, (3R)-1-[(2S)-2-[[4-(2-chlorophenyl)-7-quinolyl]oxy]propanoyl]piperidine-3-carboxylic acid] | 1000 to 10000 nM
Cc1ccccc1-c1ccnc2cc(OCC(N)=O)ccc12 [Compound 106, 2-((4-(o-tolyl)quinolin-7-yl)oxy)acetamide] | 1000 to 10000 nM
CCOC(=O)c1cccc(NC(=O)[C@@H](C)Oc2ccc3c(-c4ccc(F)cc4Cl)ccnc3c2)c1 [Compound 108, ethyl 3-[[(2 R)-2-[[4-(2-chloro-4-fluoro-phenyl)-7-quinolyl]oxy]propanoyl]amino]benzoate] | 1000 to 10000 nM
Cc1cc(-c2ccccc2C)c2ccc(O[C@H](C)C(=O)N3CCC[C@H](C(=O)OC(C)(C)C)C3)cc2n1 [Compound 111] | 1000 to 10000 nM
C[C@@H](Oc1ccc2c(-c3ccc(F)cc3Cl)ccnc2c1)C(=O)Nc1ccc(CCO)cc1 [Compound 125, (2R)-2-[[4-(2-chloro-4-fluoro-phenyl)-7-quinolyl]oxy]-N-[4-(2-hydroxyethyl)phenyl]propanamide] | 1000 to 10000 nM
COc1ccccc1-c1ccnc2cc(O[C@H](C)C(=O)N3CCC[C@H](CC(=O)O)C3)ccc12 [Compound 135, 2-[(3R)-1-[(2R)-2-[[4-(2-methoxyphenyl)-7-quinolyl]oxy]propanoyl]-3-piperidyl]acetic acid] | 1000 to 10000 nM
C[C@@H](Oc1ccc2c(-c3ccccc3OC(F)(F)F)ccnc2c1)C(=O)N1CCC[C@H](CC(=O)O)C1 [Compound 137, 2-[(3R)-1-[(2R)-2-[[4-[2-(trifluoromethoxy)phenyl]-7-quinolyl]oxy]propanoyl]-3-piperidyl]acetic acid] | 1000 to 10000 nM
Cc1cccc(Cl)c1-c1ccnc2cc(O[C@H](C)C(=O)N3CCC[C@H](CC(=O)O)C3)ccc12 [Compound 141, 2-[(3R)-1-[(2R)-2-[[4-(2-chloro-6-methyl-phenyl)-7-quinolyl]oxy]propanoyl]-3-piperidyl]acetic acid] | < 20 nM
C[C@@H](Oc1ccc2c(-c3ccccc3Br)ccnc2c1)C(=O)N1CCC[C@H](CC(=O)O)C1 [Compound 142, 2-[(3R)-1-[(2R)-2-[[4-(2-bromophenyl)-7-quinolyl]oxy]propanoyl]-3-piperidyl]acetic acid] | < 20 nM
C#Cc1ccccc1-c1ccnc2cc(O[C@H](C)C(=O)N3CCC[C@H](CC(=O)O)C3)ccc12 [Compound 144, 2-[(3R)-1-[(2R)-2-[[4-(2-ethynylphenyl)-7-quinolyl]oxy]propanoyl]-3-piperidyl]acetic acid] | 20 to 100 nM
C[C@@H](Oc1ccc2c(-c3c(C(F)(F)F)cccc3C(F)(F)F)ccnc2c1)C(=O)N1CCC[C@H](CC(=O)O)C1 [Compound 151, 2-[(3R)-1-[(2R)-2-[[4-[2,6-bis(trifluoromethyl)phenyl]-7-quinolyl]oxy]propanoyl]-3-piperidyl]acetic acid] | 1000 to 10000 nM
COc1cccc(Cl)c1-c1ccnc2cc(O[C@H](C)C(=O)N3CCC[C@H](CC(=O)O)C3)ccc12 [Compound 152, 2-[(3R)-1-[(2R)-2-[[4-(2-chloro-6-methoxy-phenyl)-7-quinolyl]oxy]propanoyl]-3-piperidyl]acetic acid] | 1000 to 10000 nM

Further lines, results first:

IC50 | SMILES
1000 to 10000 nM | CNC(=O)C[C@H]1CCCN(C(=O)[C@@H](C)Oc2ccc3c(-c4ccc(F)cc4Cl)cc(Cl)nc3c2)C1 [Compound 98, 2-((R)-1-((R)-2-((2-chlor-4-(2-chloro-4-fluorophenyl)quinolin-7-yl)oxy)propanoyl)piperidin-3-yl)-N-methylacetamide]
1000 to 10000 nM | C[C@@H](Oc1ccc2c(-c3ccccc3Cl)ccnc2c1)C(=O)O [Compound 103, (2R)-2-[[4-(2-chlorophenyl)-7-quinolyl]oxy]propanoic acid]
1000 to 10000 nM | CNC(=O)[C@H]1CCCN(C(=O)[C@@H](C)Oc2ccc3c(-c4ccc(F)cc4Cl)cc(Cl)nc3c2)C1 [Compound 105, (3S)-N-methyl-1-[(2R)-2-[[2-chloro-4-(2-chloro-4-fluoro-phenyl)-7-quinolyl]oxy]propanoyl]piperidine-3-carboxamide]
1000 to 10000 nM | C[C@@H](Oc1ccc2c(-c3ccc(F)cc3Cl)cc(Cl)nc2c1)C(=O)N1CCCCC1 [Compound 107, (2R)-2-[[2-chloro-4-(2-chloro-4-fluoro-phenyl)-7-quinolyl]oxy]-1-(1-piperidyl)propan-1-one]
1000 to 10000 nM | C[C@@H](Oc1ccc2c(-c3ccccc3F)ccnc2c1)C(=O)N1CCC[C@H](CC(=O)O)C1 [Compound 110, 2-[(3R)-1-[(2R)-2-[[4-(2-fluorophenyl)-7-quinolyl]oxy]propanoyl]-3-piperidyl]acetic acid]
1000 to 10000 nM | CC(C)c1ccccc1-c1ccnc2cc(O[C@H](C)C(=O)N3CCC[C@H](CC(=O)O)C3)ccc12 [Compound 122, 2-[(3R)-1-[(2R)-2-[[4-(2-isopropylphenyl)-7-quinolyl]oxy]propanoyl]-3-piperidyl]acetic acid]
1000 to 10000 nM | C[C@H](Oc1ccc2c(-c3ccc(F)cc3Cl)ccnc2n1)C(=O)N1CCC[C@H](C(=O)O)C1 [Compound 127, (3S)-1-[(2S)-2-[[5-(2-chloro-4-fluoro-phenyl)-1,8-naphthyridin-2-yl]oxy]propanoyl]piperidine-3-carboxylic acid]
1000 to 10000 nM | Cc1ccsc1-c1ccnc2cc(O[C@H](C)C(=O)N3CCC[C@H](CC(=O)O)C3)ccc12 [Compound 134, 2-[(3R)-1-[(2R)-2-[[4-(3-methyl-2-thienyl)-7-quinolyl]oxy]propanoyl]-3-piperidyl]acetic acid]
100 to 1000 nM | C[C@@H](Oc1ccc2c(-c3ccccc3C(F)(F)F)ccnc2c1)C(=O)N1CCC[C@H](CC(=O)O)C1 [Compound 136, 2-[(3R)-1-[(2R)-2-[[4-[2-(trifluoromethyl)phenyl]-7-quinolyl]oxy]propanoyl]-3-piperidyl]acetic acid]
< 20 nM | Cc1cccc(C)c1-c1ccnc2cc(O[C@H](C)C(=O)N3CCC[C@H](S(N)(=O)=O)C3)ccc12 [Compound 138, (3S)-1-[(2R)-2-[[4-(2,6-dimethylphenyl)-7-quinolyl]oxy]propanoyl]piperidine-3-sulfonamide]
1000 to 10000 nM | CC(C)(Oc1ccc2c(-c3ccccc3Cl)ccnc2c1)C(=O)N1CCC[C@H](CC(=O)O)C1 [Compound 139, 2-[(3R)-1-[2-[[4-(2-chlorophenyl)-7-quinolyl]oxy]-2-methyl-propanoyl]-3-piperidyl]acetic acid]
100 to 1000 nM | C[C@@H](Oc1ccc2c(-c3ccccc3C#N)ccnc2c1)C(=O)N1CCC[C@H](CC(=O)O)C1 [Compound 143, 2-[(3R)-1-[(2R)-2-[[4-(2-cyanophenyl)-7-quinolyl]oxy]propanoyl]-3-piperidyl]acetic acid]
100 to 1000 nM | C[C@@H](Oc1ccc2c(-c3ccccc3N(C)C)ccnc2c1)C(=O)N1CCC[C@H](CC(=O)O)C1 [Compound 145, 2-[(3R)-1-[(2R)-2-[[4-[2-(dimethylamino)phenyl]-7-quinolyl]oxy]propanoyl]-3-piperidyl]acetic acid]
